In the NIST ThermoML archive (doi:10.1007/s10765-005-8590-7):

Assay: xn = mol fraction of the nth substance listed
Conditions: Fluid (supercritical or subcritical phases), Constant-volume piezometry

N [ammonia] + O
Conditions	mass density [kg/m3]
275.15 K, 5862 kPa, x1 = 0.0955	967.89
275.15 K, 7362.2 kPa, x1 = 0.0513	984.54
275.15 K, 8702.8 kPa, x1 = 0.064	979.9
275.16 K, 16098 kPa, x1 = 0.047	989.39
275.23 K, 5541.3 kPa, x1 = 0.0644	979.5
276.15 K, 5893.5 kPa, x1 = 0.0999	970.55
277.08 K, 8983.2 kPa, x1 = 0.1386	954.88
277.14 K, 5409.4 kPa, x1 = 0.1086	963.03
277.14 K, 9054.1 kPa, x1 = 0.064	979.8
277.14 K, 16926 kPa, x1 = 0.0606	986.49
277.15 K, 3335.7 kPa, x1 = 0.014	995.99
277.15 K, 4008 kPa, x1 = 0.0302	990.84
277.15 K, 5289 kPa, x1 = 0.1436	951.66
277.15 K, 7604.3 kPa, x1 = 0.0513	984.44
277.18 K, 953.2 kPa, x1 = 0.0591	975.15
277.2 K, 5773.5 kPa, x1 = 0.0644	979.4
277.21 K, 6487 kPa, x1 = 0.0955	967.76
279.08 K, 6161.2 kPa, x1 = 0.0644	979.29
279.11 K, 10157 kPa, x1 = 0.1386	954.73
279.12 K, 6995.3 kPa, x1 = 0.0999	970.36
279.12 K, 7195.5 kPa, x1 = 0.0955	967.64
279.14 K, 3259.7 kPa, x1 = 0.0582	979.2
279.15 K, 3348.5 kPa, x1 = 0.014	995.9
279.15 K, 4150.8 kPa, x1 = 0.0302	990.74
279.15 K, 6475.7 kPa, x1 = 0.1436	951.51
279.15 K, 7945.5 kPa, x1 = 0.0513	984.33
279.17 K, 9525.4 kPa, x1 = 0.064	979.68
280.14 K, 6718.7 kPa, x1 = 0.1086	962.82
281.08 K, 7983 kPa, x1 = 0.0955	967.51
281.11 K, 11383 kPa, x1 = 0.1386	954.58
281.13 K, 10065 kPa, x1 = 0.064	979.57
281.14 K, 6677.8 kPa, x1 = 0.0644	979.17
281.15 K, 3472.7 kPa, x1 = 0.014	995.8
281.15 K, 4392.5 kPa, x1 = 0.0302	990.64
281.15 K, 8371.2 kPa, x1 = 0.0513	984.22
281.19 K, 10108 kPa, x1 = 0.064	979.56
281.22 K, 1795.9 kPa, x1 = 0.0591	974.91
282.15 K, 8409.8 kPa, x1 = 0.1436	951.28
282.16 K, 8309.2 kPa, x1 = 0.0999	970.16
282.8 K, 8732.9 kPa, x1 = 0.0955	967.39
283.12 K, 4275.1 kPa, x1 = 0.0582	978.96
283.13 K, 12686 kPa, x1 = 0.1386	954.43
283.14 K, 8193.3 kPa, x1 = 0.1086	962.61
283.15 K, 3692.3 kPa, x1 = 0.014	995.7
283.15 K, 4731.8 kPa, x1 = 0.0302	990.53
283.15 K, 8198.4 kPa, x1 = 0.1086	962.61
283.15 K, 8879.5 kPa, x1 = 0.0513	984.1
283.15 K, 10706 kPa, x1 = 0.064	979.44
283.17 K, 7273.4 kPa, x1 = 0.0644	979.05
285.09 K, 7901.4 kPa, x1 = 0.0644	978.93
285.15 K, 4011.8 kPa, x1 = 0.014	995.59
285.15 K, 5171.1 kPa, x1 = 0.0302	990.41
285.15 K, 9527 kPa, x1 = 0.0513	983.98
285.15 K, 10464 kPa, x1 = 0.1436	951.05
285.15 K, 10466 kPa, x1 = 0.1436	951.05
285.16 K, 11435 kPa, x1 = 0.064	979.32
285.17 K, 2999.7 kPa, x1 = 0.0591	974.66
285.17 K, 14062 kPa, x1 = 0.1436	954.28
286.14 K, 9868.4 kPa, x1 = 0.1086	962.4
287.06 K, 10858 kPa, x1 = 0.0955	967.09
287.13 K, 5735.3 kPa, x1 = 0.0582	978.69
287.13 K, 12206 kPa, x1 = 0.064	979.19
287.15 K, 4434.3 kPa, x1 = 0.014	995.47
287.15 K, 10223 kPa, x1 = 0.0513	983.85
287.17 K, 8642.4 kPa, x1 = 0.0644	978.79
288.13 K, 11389 kPa, x1 = 0.0999	969.74
288.14 K, 11389 kPa, x1 = 0.0999	969.74
288.15 K, 12628 kPa, x1 = 0.1436	950.81
289.04 K, 4499.1 kPa, x1 = 0.0591	974.4
289.14 K, 6552.7 kPa, x1 = 0.0582	978.56
289.15 K, 4946.6 kPa, x1 = 0.014	995.35
289.15 K, 6317.7 kPa, x1 = 0.0302	990.16
289.15 K, 11020 kPa, x1 = 0.0513	983.72
289.15 K, 11640 kPa, x1 = 0.1386	962.18
289.15 K, 13114 kPa, x1 = 0.064	979.06
289.21 K, 9475.8 kPa, x1 = 0.0644	978.66
291.12 K, 10278 kPa, x1 = 0.0644	978.53
291.13 K, 7445.3 kPa, x1 = 0.0582	978.41
291.13 K, 13172 kPa, x1 = 0.0999	969.52
291.15 K, 5561.2 kPa, x1 = 0.014	995.22
291.15 K, 11884 kPa, x1 = 0.0513	983.58
291.15 K, 14080 kPa, x1 = 0.064	978.92
291.16 K, 13203 kPa, x1 = 0.0955	966.79
292.14 K, 7407.7 kPa, x1 = 0.0302	989.96
292.15 K, 7429.1 kPa, x1 = 0.0302	989.96
293.12 K, 14421 kPa, x1 = 0.0955	966.65
293.13 K, 11186 kPa, x1 = 0.0644	978.39
293.14 K, 8423.6 kPa, x1 = 0.0582	978.27
293.15 K, 6247.6 kPa, x1 = 0.014	995.09
293.16 K, 15112 kPa, x1 = 0.064	978.78
293.22 K, 6453.9 kPa, x1 = 0.0591	974.1
294.15 K, 15125 kPa, x1 = 0.0999	969.3
295.11 K, 8696.2 kPa, x1 = 0.0302	989.75
295.12 K, 9437.2 kPa, x1 = 0.0582	978.12
295.15 K, 7035 kPa, x1 = 0.014	994.95
295.15 K, 12162 kPa, x1 = 0.0644	978.25
295.15 K, 13851 kPa, x1 = 0.0513	983.31
297.15 K, 7909.9 kPa, x1 = 0.014	994.81
297.15 K, 10576 kPa, x1 = 0.0582	977.97
297.21 K, 13180 kPa, x1 = 0.0644	978.11
297.22 K, 8637.1 kPa, x1 = 0.0591	973.79
298.16 K, 10232 kPa, x1 = 0.0302	989.53
299.08 K, 11729 kPa, x1 = 0.0582	977.83
299.15 K, 8841.2 kPa, x1 = 0.014	994.66
299.19 K, 14184 kPa, x1 = 0.0644	977.97
301.02 K, 10950 kPa, x1 = 0.0591	973.5
301.11 K, 15142 kPa, x1 = 0.0644	977.84
301.15 K, 9880.3 kPa, x1 = 0.014	994.51
303.15 K, 10919 kPa, x1 = 0.014	994.37
303.2 K, 14357 kPa, x1 = 0.0582	977.51
305.11 K, 13746 kPa, x1 = 0.0591	973.17
305.15 K, 12107 kPa, x1 = 0.014	994.21
305.21 K, 15774 kPa, x1 = 0.0582	977.35
309.15 K, 14684 kPa, x1 = 0.014	993.9
